Results: BindingDB's records for doi:10.1021/acs.jmedchem.6b01088 (Bristol Myers Squibb, 2016)

Assay: Inhibition of LCK in human peripheral T cells assessed as suppression of TCR-dependant cell proliferation

## Cc1c(-c2c(F)cc(C(N)=O)c3[nH]c4c(c23)CC[C@H](C(C)(C)O)C4)cccc1-n1c(=O)c2cccc(F)c2n(C)c1=O
  IC50: 3.8 µM
